Experimental data reported in PubChem BioAssay AID1159559 (GlaxoSmithKline (GSK), 2015).
Calls of active or inactive are those of the source.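 How the source made its calls: active means compounds whose IC50 against parasite growth in infected mouse cells is below 50000 nM; inactive means the rest.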

System: T. cruzi Tulahuen in NIH-3T3, beta-gal fluorescence, 4 d
Assay: anti-Chagas amastigote proliferation inhibitors – cell-based (AID 1159559)

Compound	IC50
COc1cccc(NS(=O)(=O)c2ccc3[nH]cc(C(=O)NCCC(C)C)c(=O)c3c2)c1	> 50000 nM (inactive)
COc1ccc(-c2ccc3nnc(-c4ccc(O)c(OC)c4)n3c2)cn1	1300 nM
Cc1ccccc1CNc1cc(C2CC2)nc(-c2nccn2C)n1	790 nM
Cc1cc(Nc2ccc(C#N)c(Cl)c2C)n[nH]1	25000 nM
O=c1ccc2ccc(F)c3c2n1C[C@H]3CN1CCN(CC(O)c2cc3c(cn2)OCS3)CC1 (stereo not given in full)	630 nM
O=C(c1ccc(O)c(Cl)c1)N1CCN(c2cnccn2)CC1	> 50000 nM (inactive)
Cn1nccc1-c1cc(OC(CN)c2ccccc2)cnc1-c1ccco1 (stereo not given)	400 nM
COc1ccc(-c2cc(C)no2)cc1S(=O)(=O)Nc1ccc(C)c(C)c1	5000 nM
COc1ccc([N+](=O)[O-])cc1NC(=O)Nc1cccc(Cl)c1	790 nM
Cc1ccc(Nc2nc(C3CCCN3Cc3ccn[nH]3)cs2)nc1 (stereo not given)	790 nM
O=C(NC(c1ccc(Cl)cc1)c1cnccn1)C1CCN(C(=O)Nc2cccc(C(F)(F)F)c2)CC1 (stereo not given)	630 nM
CCC(CC)C(=O)Nc1ccc(-c2nnc(-c3ccc(OC)cc3)o2)cc1	5000 nM
CC1(C)CCC(=Cc2ccc(Cl)cc2)CC1(O)Cn1ccnc1 (stereo not given)	6.3 nM
COc1cc(OC)cc(C(=O)N[C@@H](CC(C)C)C(=O)NC2(C#N)CC2)c1	> 50000 nM (inactive)
O=C1c2cnc(N3CCCC3)nc2CN1c1ccc2c(c1)OCO2	2500 nM
Cc1ccc2c(c1)SC(C(=O)Nc1n[nH]c(-c3ccccn3)n1)C2 (stereo not given)	5000 nM
Cc1ccc(-c2csc(NC(=O)C=Cc3ccc(S(=O)(=O)N4CCOCC4)cc3)n2)o1	7900 nM
O=C1COC(c2ccccc2)(c2ccccc2)CN1C1CCN(Cc2ccc(-n3ccnc3)cc2)CC1	1600 nM
O=C(CCCNC(=O)c1ccc(Cl)cc1)Nc1nc(-c2ccccn2)cs1	6300 nM
Cc1cc(NC(=O)c2ccc([N+](=O)[O-])s2)ccc1Br	250 nM
COc1cc(-c2nc(N3CCOCC3)sc2-c2ccnc(NC3CCOCC3)n2)ccc1Cl	250 nM
O=C(N1CCc2ccccc2CC1)C1(C(=O)N2CCC(n3c(=O)[nH]c4ncccc43)CC2)CC1	630 nM

Compound	IC50
CCOc1ccccc1C(=O)Nc1nnc(-c2ccc3c(c2)OCO3)s1	630 nM
Cc1c(C#N)c([N+](=O)[O-])nn1Cc1cccc(Cl)c1Cl	200 nM
c1ccc(Nc2nc3ccccc3[nH]2)nc1	7900 nM
O=c1cc(NCCCNCc2c[nH]c3ccc(Br)cc23)[nH]c2ccccc12	> 50000 nM (inactive)
COc1ccc(C)cc1-c1csc(NC(=O)C(C)n2ccnc2)n1 (stereo not given)	63 nM
CC(Cn1ccnc1)NC(=O)C=Cc1ccc(Cl)cc1 (stereo not given)	400 nM
CS(=O)(=O)c1ccccc1C(=O)N(Cc1ccccc1)c1ccccc1	50000 nM
OCCCNc1nc(Nc2ccncc2)nc2ccccc12	630 nM
CCc1cccc(CC)c1-n1c(SCC(=O)N2CC(=O)Nc3ccccc32)nnc1-c1cccnc1	25000 nM
O=C(Cn1cnc2c(-c3ccccc3)csc2c1=O)N1CCCCC1	3200 nM
O=C(Nc1nc(-c2ccccn2)cs1)N1C[C@H]2C[C@@]2(c2ccccc2)C1	500 nM
CS(=O)(=O)c1ccc(Nc2nccc(-c3cnn4ncccc34)n2)cc1	2000 nM
COc1ccc(OC)c(NC(=O)c2ccc([N+](=O)[O-])o2)c1	3200 nM
COc1cccc(C(=O)[C@H]2C[C@@H]2CN(Cc2ccccn2)Cc2ccccn2)c1	1300 nM
COc1ccc2ncc(Cl)c(CCN3CC[C@@H](NCc4cc5c(cn4)OCS5)[C@H](O)C3)c2n1	130 nM
O=C(NCC1CCCCN1C(=O)c1cccc2ccccc12)c1ccccc1 (stereo not given)	6300 nM
Cc1[nH]nc(-c2nc3ccccc3[nH]2)c1C(=O)NC1CCCNC1 (stereo not given)	790 nM
COc1cccc(-c2c(C)nn(-c3nc(N)nc(-c4ccccn4)n3)c2N)c1	2500 nM
COc1ccc(CN2C(=O)C(O)(CC(=O)c3ccncc3)c3cc(Br)ccc32)cc1OC (stereo not given)	2500 nM
O=c1ccn(-c2ccc([N+](=O)[O-])cc2Cl)c2ccc(F)cc12	1600 nM
COc1cccc(Nc2cc(C)nc(-c3ccccn3)n2)c1	3200 nM
CC(c1ccccn1)N(C)Cc1nc2ccccc2n1C(C)C (stereo not given)	1600 nM

Compound	IC50
Cn1nc([N+](=O)[O-])nc1N1CCCCC1	1300 nM
Cc1ccc(NC(C)C(=O)Nc2ccc(C#N)cc2)cc1S(=O)(=O)N1CCCCC1 (stereo not given)	10000 nM
CS(=O)(=O)c1ccc(CC(=O)Nc2nc(-c3ccc(Cl)s3)cs2)cc1	400 nM
CC(=O)Nc1ccc(-c2ccnc(Nc3cccc(C#N)c3)n2)cc1	6300 nM
OC1CCC(Nc2nccc(-c3sc(C4CCOCC4)nc3-c3ccc(F)c(F)c3)n2)CC1 (stereo not given)	320 nM
CCc1cc(C(=O)Nc2nccn2-c2ccccc2)cs1	3200 nM
COc1cc(C2SCC(=O)Nc3c2c(C)nn3-c2nc3ccccc3s2)cc(OC)c1O (stereo not given)	> 50000 nM (inactive)
CCC(=O)N1N=C(c2ccc3c(c2)CCCC3)Sc2c1ncn2C(=O)CC	6300 nM
Cn1c(CC(=O)NNC(=O)c2ccc3ccccc3n2)nc2ccccc21	3200 nM
COc1ccc(C(=O)NC2CCN(CCn3c(=O)ccc4ncc(F)cc43)CC2)cc1Cl	500 nM
Cc1cc(N2CCc3ccccc3C2)nc(Nc2ccc(S(=O)(=O)N3CCOCC3)cc2)n1	> 50000 nM (inactive)
CN1C(=O)c2ccccc2Sc2ccc(NC(=O)NCc3ccco3)cc21	10000 nM
CC(C)(C)c1csc(NC(=O)c2ccc([N+](=O)[O-])s2)n1	160 nM
CN(Cc1cccnc1)Cc1ccc(N2CCN(C(=O)C3(c4ccc(Cl)cc4)CC3)CC2)nc1	500 nM
N#Cc1cc(-c2ccnc(Nc3cccc(CN4CCOCC4)c3)n2)ccc1NCCN	7900 nM
CCCn1c(NC(=O)CCn2cc(Br)cn2)nc2ccccc21	5000 nM
Cn1cncc1CN1CCC2(CC1)COC(Cc1ccccc1)C2 (stereo not given)	320 nM
CC(C)c1nn(-c2nc(N)nc(-c3ccccn3)n2)c(N)c1C1CCCCC1	2000 nM
Nc1ncnc2c1ncn2[C@@H]1O[C@H](CO)C[C@H]1O	1000 nM
COc1ccc(-c2csc(NC(=O)c3ccc([N+](=O)[O-])s3)n2)cc1	160 nM
CN1CCCN(C(=O)c2ccc(N3CCCC3)cc2Cl)CC1	790 nM
CCN(CC)c1nc(Nc2ccncc2)nc2ccccc12	130 nM

Compound	IC50
CNS(=O)(=O)c1ccccc1Nc1nc(Nc2ccnn2C)ncc1Cl	400 nM
CN1CCN(c2nc(-c3ccc(Cl)cc3)c3c(N)n(C)nc3n2)CC1	2000 nM
CS(=O)(=O)NC1CCC(Nc2ncc(Br)c(Nc3ccccc3C(N)=O)n2)CC1 (stereo not given)	7900 nM
CCN(Cc1ccncc1)Cc1ccc(NC(=O)c2cc(-c3ccc(F)cc3)n[nH]2)cc1	400 nM
Cc1[nH]c2ccccc2c(=O)c1Cc1c(C)[nH]c2ccccc2c1=O	2500 nM
COc1ccc2nc(N(Cc3cccnc3)C(=O)C3CCC3)sc2c1	130 nM
O=C(Nc1cccc(Cl)c1)Nc1ccc([N+](=O)[O-])cc1Cl	1300 nM
CC(C)C[C@H](NC(=O)c1ccc(-c2ccccc2)o1)C(=O)NC1(C#N)CC1	32000 nM
CN(C)S(=O)(=O)c1cccc(CSc2nnc(-c3ccc4c(c3)OCO4)o2)c1	500 nM
c1ccc2c(CCOc3nccnc3-c3ccncc3)c[nH]c2c1	130 nM
Cc1nc(N2CC(C)OC(C)C2)sc1C(=O)Nc1ccc2c(c1)OCO2 (stereo not given)	2000 nM
Cn1nccc1NC(=O)Cn1ccc(-c2ccncc2)n1	> 50000 nM (inactive)
COc1cc(OC)cc(C(NS(=O)(=O)c2ccc(Cl)c(C(F)(F)F)c2)c2nccn2C)c1 (stereo not given)	4000 nM
CN(C)c1ccc(N)cc1CN(CC1CCCO1)S(C)(=O)=O (stereo not given)	> 50000 nM (inactive)
CN(Cc1ccc(C(N)=O)cc1)C(c1ccc(F)cc1)c1cccnc1 (stereo not given)	160 nM
O=C(Nc1ccccc1C(=O)Nc1ccccn1)c1ccco1	> 50000 nM (inactive)
O=S(=O)(c1cccc(CSc2nnc(-c3ccc4c(c3)OCO4)o2)c1)N1CCOCC1	200 nM
Nc1cc(-c2ccc3ncnc(N4CCOCC4)c3c2)cnc1N	1600 nM
COc1ccc(-c2cnc(NC(=O)c3cc(-c4ccccn4)n[nH]3)n2C)cc1	3200 nM
Fc1ccccc1N1C[C@H]2CCN(c3cccnc3)C[C@H]2C1	200 nM
O=C(Nc1ncc([N+](=O)[O-])s1)C1CC1	400 nM
CCCN(Cc1ccc(OC)c(OC)c1)Cc1cc(=O)c2c(C)cc(C)cc2[nH]1	2000 nM

Compound	IC50
C=CCn1nc([N+](=O)[O-])nc1Oc1ccc(Cl)cc1Cl	250 nM
Cc1cc2ncn(-c3ccc([N+](=O)[O-])cc3C#N)c2cc1C	1300 nM
O=C(c1ccccc1)N1CCC(C(=O)N2CCC(Oc3ccccc3Cl)CC2)CC1	2000 nM
O=C(Nc1nc(-c2ccc(S(=O)(=O)N3CCOCC3)cc2)cs1)c1ccc([N+](=O)[O-])cc1	1000 nM
CCOc1cnn(C)c(=O)c1Nc1ccc(C(=O)NCc2ccc(F)cc2)cc1	250 nM
Cc1ccc(NC(=O)c2ccc([N+](=O)[O-])s2)cc1S(=O)(=O)N1CCOCC1	200 nM
O=C(c1cc2cc(Cl)ccc2[nH]1)N1CCCCC1c1cccnc1 (stereo not given)	250 nM
CN(Cc1cc2ccccc2s1)c1ncc2c(N)nc(N)nc2n1	2000 nM
Oc1c(-c2n[nH]c(Cc3ccc(F)cc3)n2)ncc2cccnc12	160 nM
CCNc1cc(-c2ccccn2)nc(Nc2ccccc2)n1	790 nM
Cc1cc(Nc2cc(C3CC3)[nH]n2)nc(N2CCC[C@H]2C(N)=O)n1	130 nM
Cc1ccc(Nc2nc(-c3ccccn3)cc(N3CCCC(O)C3)n2)cc1 (stereo not given)	500 nM
Cc1ccccc1NS(=O)(=O)c1ccc2[nH]cc(C(=O)NC3CCCCC3)c(=O)c2c1	10000 nM
COc1ccccc1CNc1cc(C2CC2)nc(-c2nccn2C)n1	790 nM
Clc1ccc(OCCN2CCCCC2c2cccnc2)c(Cl)c1 (stereo not given)	400 nM
c1cncc(CN(Cc2ccco2)Cc2cn[nH]c2-c2cccs2)c1	20 nM
COc1cccc(C(=O)[C@H]2C[C@@H]2CN(Cc2cccnc2)Cc2cccnc2)c1	100 nM
O=C(CN1CCC2(O)CCCCC2C1c1ccc2c(c1)OCO2)Nc1ccc(Cl)cc1Cl (stereo not given)	13000 nM
CC(C)(C)c1cc(NC2CC2)nc(-c2ccccn2)n1	1300 nM
COc1cccc(S(=O)(=O)Nc2ccc3c(c2)CC(N2CCC(NC(=O)C4CC4)CC2)C3)c1 (stereo not given)	40000 nM
O=C(Nc1ccc(C(F)(F)F)cc1)Nc1cccc([N+](=O)[O-])c1	1000 nM
COc1ccnc2[nH]cc(-c3cc(C(=O)N[C@H](CO)c4ccccc4)co3)c12	1300 nM
